Laboratory results reported in patent US9676756B2 (PORTOLA PHARMACEUTICALS, INC., priority 2012, dated 2017).
Where two headings read alike, the source gives them in different places.

Assays:
Format in all cases: biochemical
[1] = target: T1, JAK1 (Homo sapiens, UniProt P23458); assay: JAK tyrosine phosphorylation activity, Z'-LYTE FRET kinase assay; conditions: catalytic domain recombinant kinase, Tyr6 peptide
T1 construct: 5 μl of catalytic domain recombinant Kinase enzyme+Tyr peptide substrate (Invitrogen, CA); purchased Invitrogen
Experimental: (§1) JAK and SYK tyrosine phosphorylation activity is measured using the Z'-LYTE™ Technology developed by Invitrogen Corporation (Carlsbad, Calif.). For JAK1, JAK2 and JAK3 the Z'-LYTE™ Kinase Assay Kit-Tyr6 Peptide (part number PV4122) was used. The Z'-LYTE™ biochemical assay employs a fluorescence resonance energy transfer (FRET) coupled-enzyme format and is based on the differential sensitivity of phosphorylated and non-phosphorylated peptides to proteolitic cleavage. The assay uses a synthetic peptide substrate that is labelled with a donor fluorophore (coumarin) and an acceptor fluorophore (fluorescein) that make up a FRET pair. In the primary reaction (the Kinase Reaction), the kinase transfers the γ-phosphate of ATP to a single tyrosine residue on the substrate, while the presence of a kinase inhibitor in the primary reaction suppresses phosphorylation. In the secondary reaction (the Development Reaction), a site-specific protease (the Development Reagent) is added. The development buffer quenches the Kinase Reaction, while the protease recognizes and cleaves non-phosphorylated Z'-LYTE™ peptide substrate. Cleavage disrupts FRET between the donor and acceptor fluorophores on the non-phosphorylated substrate, while uncleaved, phosphorylated substrate maintains FRET.
(§2) To test the ability of candidate molecules to inhibit JAK tyrosine phosphorylation activity, molecules are reconstituted in 100% DMSO and serially diluted 1:10 in polypropylene v-bottom microtiter plates. The candidate molecules are then diluted 1:25 into kinase buffer and 2.5 μl transferred into duplicate wells of a 384 well low volume black microtiter assay plate (Corning, USA). The final DMSO concentration in the assay is 1%. The kinase reaction contains 2.5 μl of a candidate molecule, 5 μl of catalytic domain recombinant Kinase enzyme+Tyr peptide substrate (Invitrogen, CA) and 2.5 μl ATP (Invitrogen, CA). The kinase reaction is allowed to precede for 1 hour at room temperature. The protease reaction is initiated by the addition of 5 μl Development Reagent (Invitrogen, CA). After 1 hour incubation at room temperature the fluorescence is measured using a FlexStation plate reader (Molecular Devices, Sunnyvale, Calif.). The reader settings used are as follows: Fluorescence mode, endpoint, top read, excitation 400 nm, emission 445 nm and 520 nm. Auto Cutoff 435 nm and 515 nm, PMT sensitivity high, 6 reads per well. Inhibition of JAK activity is calculated as the percent phosphorylation of substrate in the presence of inhibitor compared to the percent phosphorylation of substrate in the absence of inhibitor. IC50's were derived using Xlfit 4.3 (IDBS, UK), 4 parameter logistic model 205: Y=(A+((B−A)/(1+((C/x)^D)))).

[2] = target: T2, JAK3 (Homo sapiens, UniProt P52333); assay: as above; conditions: catalytic domain recombinant kinase, Tyr6 peptide
T2 construct: 5 μl of catalytic domain recombinant Kinase enzyme+Tyr peptide substrate (Invitrogen, CA); purchased Invitrogen
Experimental: as §1, §2

[3] = target: T3, JAK2 (Homo sapiens, UniProt O60674); assay: as above; conditions: catalytic domain recombinant kinase, Tyr6 peptide
T3 construct: 5 μl of catalytic domain recombinant Kinase enzyme+Tyr peptide substrate (Invitrogen, CA); purchased Invitrogen
Experimental: as §1, §2

[4] = target: T4, full length active recombinant SYK enzyme (Homo sapiens, UniProt P43405); assay: SYK tyrosine phosphorylation activity, LANCE TR-FRET kinase assay; conditions: 1 nM SYK, 100 μM ATP, 1 hour at room temperature
T4 construct: full length active recombinant SYK enzyme (Millipore, CA); purchased Millipore
Experimental: Potency of candidate molecules for inhibiting Syk tyrosine phosphorylation activity is assessed by measuring the ability of a test compound to inhibit Syk-mediated tyrosine phosphorylation of a Syk-specific substrate.
SYK tyrosine phosphorylation activity is measured using the LANCE™ Technology developed by Perkin Elmer Life and Analytical Sciences (Boston, Mass.). LANCE™ refers to homogeneous time resolved fluorometry applications using techniques such as time-resolved fluorescence resonance energy transfer assay (TR-FRET) (see generally for procedures in Perkin Elmer Application Note—How to Optimize a Tyrosine Kinase Assay Using Time Resolved Fluorescence-Based LANCE Detection, wwww.perkinelmer.com/lifesciences). The assay principle involves detection of a phosphorylated substrate using energy transfer from a phosphospecific europium-labeled antibody to streptavidin-allophycocyanin as an acceptor.
To test the ability of candidate molecules to inhibit SYK tyrosine phosphorylation activity, molecules are reconstituted in 30% DMSO and serially diluted 1:3 with the final dilution containing DMSO in the absence of the candidate molecule. The final DMSO concentration in the assay is 3%. Kinase assays are performed as a two part reaction. The first reaction is a kinase reaction that comprises a candidate molecule, full length active recombinant SYK enzyme (Millipore, CA) and biotin-labeled SYK-specific substrate biotin-[…]-OH. The second reaction involves termination of the kinase reaction and the simultaneous addition of the detection reagents-europium-labeled anti-phosphotyrosine reagent (Eu-W1024-PY100, Perkin Elmer, Boston, Mass.) and Streptavidin-Allophycocyanin detection reagent (SA-APC, Prozyme, CA). The kinase reaction is performed in a black U-bottom 96-well microtitre plate. The final reaction volume is 50 μL and contains a final concentration of 1 nM active SYK enzyme, 550 nM SYK-substrate, and 100 μM ATP diluted in a buffer containing 50 mM Tris pH 7.5, 5 mM MgCl2, and 1 mM DTT. The reaction is allowed to proceed for 1 hour at room temperature. The stop buffer contains 100 mM Tris pH 7.5, 300 mM NaCl2, 20 mM EDTA, 0.02% Brij35, and 0.5% BSA. The detection reagents are added to the reaction mixture at the following dilutions—1:500 for Eu-W1024-PY100 and 1:250 for SA-APC. The kinase reaction is terminated by the addition of 50 μL stop buffer containing the detection reagents. The detection is allowed to proceed for 1 hr at room temperature. Detection of the phosphorolated substrate in the absence and presence of inhibitors is measured in the TR-FRET instrument, Analyst HT (Molecular Probes, Sunnyvale, Calif.) and the condition for measurements are set up using CriterionHost Release 2.0 (Molecular Probes, Sunnyvale, Calif.). The settings used are a follows: excitation 360 nm, emission 665-7.5 nm, beam splitter 350 nm 50/50, flash 100 pulses, delay 60 us, integration 400 us, z-height 2 mm. Inhibition of SYK-tyrosine kinase activity is calculated as the maximum response observed in the presence of inhibitor, compared to that in the absence of inhibitor. IC50s are derived by non-linear regression analysis.

T2 sequence (P52333 822-1111 limits assumed): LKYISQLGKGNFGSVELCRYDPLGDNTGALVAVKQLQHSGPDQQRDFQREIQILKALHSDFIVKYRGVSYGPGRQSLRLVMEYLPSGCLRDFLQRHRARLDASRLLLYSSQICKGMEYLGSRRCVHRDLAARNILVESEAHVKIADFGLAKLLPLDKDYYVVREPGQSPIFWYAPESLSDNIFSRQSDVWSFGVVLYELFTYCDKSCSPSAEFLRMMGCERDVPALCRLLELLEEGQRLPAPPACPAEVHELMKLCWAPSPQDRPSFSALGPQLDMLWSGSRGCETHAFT
T3 sequence (O60674 849-1124 limits assumed): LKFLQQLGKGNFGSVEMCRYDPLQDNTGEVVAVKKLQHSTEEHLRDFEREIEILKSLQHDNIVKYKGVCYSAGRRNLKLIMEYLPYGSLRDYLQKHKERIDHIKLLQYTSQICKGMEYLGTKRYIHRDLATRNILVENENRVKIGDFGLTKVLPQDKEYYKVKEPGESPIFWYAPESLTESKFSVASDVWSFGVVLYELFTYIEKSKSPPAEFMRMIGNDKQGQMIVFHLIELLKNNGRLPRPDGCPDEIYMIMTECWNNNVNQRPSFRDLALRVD
T1 sequence (P23458 875-1153 limits assumed): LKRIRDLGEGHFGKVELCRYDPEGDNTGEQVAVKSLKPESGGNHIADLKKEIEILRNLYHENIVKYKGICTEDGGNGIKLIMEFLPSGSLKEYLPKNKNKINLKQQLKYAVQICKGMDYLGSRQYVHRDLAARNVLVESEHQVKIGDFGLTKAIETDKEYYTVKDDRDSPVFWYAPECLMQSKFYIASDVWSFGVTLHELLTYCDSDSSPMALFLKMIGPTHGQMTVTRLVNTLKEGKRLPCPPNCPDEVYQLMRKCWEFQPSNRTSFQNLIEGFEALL

| Compound | JAK1 IC50 potency class [1] | JAK3 IC50 potency class [2] | JAK2 IC50 potency class [3] | IC50 [4] | IC50 ([4]; read-out: Syk IC50 % Inhibition) |
| --- | --- | --- | --- | --- | --- |
| CC(=O)N1CC(c2ccc(Nc3ncc(C(N)=O)c(NC4CC4)n3)cc2)C1 [Compound 71, 2-(4-(1-acetylazetidin-3-yl)phenylamino)-4-(cyclopropylamino)pyrimidine-5-carboxamide] |  |  |  | +++ (0.10 uM<IC50<0.01 uM) |  |
| CS(=O)(=O)N1CCN(c2ccc(Nc3ncc(C(N)=O)c(NC4CC4)n3)cc2Cl)CC1 [Compound 69, 2-((3-chloro-4-(4-(methylsulfonyl)piperazin-1-yl)phenyl)amino)-4-(cyclopropylamino)pyrimidine-5-carboxamide] | +++ (0.10 uM<IC50<0.01 uM) | ++++ (0.01 uM<IC50<0.001 uM) | ++++ (0.01 uM<IC50<0.001 uM) | +++ (0.10 uM<IC50<0.01 uM) |  |
| CN(C)C(=O)N1CCC(c2ccc(Nc3ncc(C(N)=O)c(NC4CC4)n3)cc2)CC1 [Compound 5, 4-(cyclopropylamino)-2-((4-(1-(dimethylcarbamoyl)piperidin-4-yl)phenyl)amino)pyrimidine-5-carboxamide] | +++ (0.10 uM<IC50<0.01 uM) | ++++ (0.01 uM<IC50<0.001 uM) | ++++ (0.01 uM<IC50<0.001 uM) | +++ (0.10 uM<IC50<0.01 uM) |  |
| CCS(=O)(=O)N1CCN(c2ccc(Nc3ncc(C(N)=O)c(NC4CC4)n3)nc2)CC1 [Compound 67, 4-(cyclopropylamino)-2-((5-(4-(ethylsulfonyl)piperazin-1-yl)pyridin-2-yl)amino)pyrimidine-5-carboxamide] | ++ (1.0 uM<IC50<0.10 uM) | ++ (1.0 uM<IC50<0.10 uM) | ++ (1.0 uM<IC50<0.10 uM) |  | > 1000 nM |
| CN(C)C(=O)C1CCN(c2ccc(Nc3ncc(C(N)=O)c(NC4CC4)n3)cc2Cl)CC1 [Compound 53, 2-((3-chloro-4-(4-(dimethylcarbamoyl)piperidin-1-yl)phenyl)amino)-4-(cyclopropylamino)pyrimidine-5-carboxamide] | +++ (0.10 uM<IC50<0.01 uM) | ++++ (0.01 uM<IC50<0.001 uM) | ++++ (0.01 uM<IC50<0.001 uM) | +++ (0.10 uM<IC50<0.01 uM) |  |
| CS(=O)(=O)N1CCN(c2ccc(Nc3ncc(C(N)=O)c(NC4CC4)n3)cc2C#N)CC1 [Compound 47, 2-((3-cyano-4-(4-(methylsulfonyl)piperazin-1-yl)phenyl)amino)-4-(cyclopropylamino)pyrimidine-5-carboxamide] | +++ (0.10 uM<IC50<0.01 uM) | ++++ (0.01 uM<IC50<0.001 uM) | ++++ (0.01 uM<IC50<0.001 uM) | ++ (1.0 uM<IC50<0.10 uM) |  |
| NC(=O)c1cnc(Nc2ccc(C3CCN(C(=O)N4CCOCC4)CC3)cc2)nc1NC1CC1 [Compound 6, 4-(cyclopropylamino)-2-((4-(1-(morpholine-4-carbonyl)piperidin-4-yl)phenyl)amino)pyrimidine-5-carboxamide] | +++ (0.10 uM<IC50<0.01 uM) | ++++ (0.01 uM<IC50<0.001 uM) | ++++ (0.01 uM<IC50<0.001 uM) | +++ (0.10 uM<IC50<0.01 uM) |  |
| CN(C)S(=O)(=O)N1CC(c2ccc(Nc3ncc(C(N)=O)c(NC4CC4)n3)cc2)C1 [Compound 74, 4-(cyclopropylamino)-2-(4-(1-(N,N-dimethylsulfamoyl)azetidin-3-yl)phenylamino)pyrimidine-5-carboxamide] |  |  |  | +++ (0.10 uM<IC50<0.01 uM) |  |
| CN(C)C(=O)C1CN(c2ccc(Nc3ncc(C(N)=O)c(NC4CC4)n3)cc2F)C1 [Compound 77, 4-(cyclopropylamino)-2-(4-(3-(dimethylcarbamoyl)azetidin-1-yl)-3-fluorophenylamino)pyrimidine-5-carboxamide] |  |  |  | ++ (1.0 uM<IC50<0.10 uM) |  |
| CCS(=O)(=O)N1CC(c2ccc(Nc3ncc(C(N)=O)c(NC4CC4)n3)cc2)C1 [Compound 75, 4-(cyclopropylamino)-2-(4-(1-(ethylsulfonyl)azetidin-3-yl)phenylamino)pyrimidine-5-carboxamide] |  |  |  | +++ (0.10 uM<IC50<0.01 uM) |  |

Now from value to molecule:

| JAK1 IC50 potency class [1] | JAK3 IC50 potency class [2] | JAK2 IC50 potency class [3] | IC50 [4] | IC50 ([4]; read-out: Syk IC50 % Inhibition) | Compound |
| --- | --- | --- | --- | --- | --- |
| +++ (0.10 uM<IC50<0.01 uM) | ++++ (0.01 uM<IC50<0.001 uM) | ++++ (0.01 uM<IC50<0.001 uM) | ++ (1.0 uM<IC50<0.10 uM) |  | COc1cc(Nc2ncc(C(N)=O)c(NC3CC3)n2)ccc1N1CCC(C(=O)N(C)C)CC1 [Compound 51, 4-(cyclopropylamino)-2-((4-(4-(dimethylcarbamoyl)piperidin-1-yl)-3-methoxyphenyl)amino)pyrimidine-5-carboxamide] |
|  |  |  | +++ (0.10 uM<IC50<0.01 uM) |  | COCC(=O)N1CC(c2ccc(Nc3ncc(C(N)=O)c(NC4CC4)n3)cc2)C1 [Compound 72, 4-(cyclopropylamino)-2-(4-(1-(2-methoxyacetyl)azetidin-3-yl)phenylamino)pyrimidine-5-carboxamide] |
| +++ (0.10 uM<IC50<0.01 uM) | ++++ (0.01 uM<IC50<0.001 uM) | ++++ (0.01 uM<IC50<0.001 uM) | +++ (0.10 uM<IC50<0.01 uM) |  | CN(C)C(=O)C1CCN(c2ccc(Nc3ncc(C(N)=O)c(NC4CC4)n3)cc2F)CC1 [Compound 52, 4-(cyclopropylamino)-2-((4-(4-(dimethylcarbamoyl)piperidin-1-yl)-3-fluorophenyl)amino)pyrimidine-5-carboxamide] |
|  |  |  | ++ (1.0 uM<IC50<0.10 uM) |  | CN(C)C(=O)C1CN(c2ccc(Nc3ncc(C(N)=O)c(NC4CC4)n3)cc2)C1 [Compound 76, 4-(cyclopropylamino)-2-(4-(3-(dimethylcarbamoyl)azetidin-1-yl)phenylamino)pyrimidine-5-carboxamide] |
|  |  |  | +++ (0.10 uM<IC50<0.01 uM) |  | CS(=O)(=O)N1CC(c2ccc(Nc3ncc(C(N)=O)c(NC4CC4)n3)cc2)C1 [Compound 73, 4-(cyclopropylamino)-2-(4-(1-(methylsulfonyl)azetidin-3-yl)phenylamino)pyrimidine-5-carboxamide] |
